This is an account of results in US20220117945A1, “ISOXAZOLE CARBOXAMIDE COMPOUNDS AND USES THEREOF” (NOVARTIS AG, priority 2017, published 2022).

The test system of this assay is Atoh1 expression in mouse cerebellar neural precursor cells. Put plainly: Atoh1 induction assay in mouse cerebellar neural precursor cells (NPCs), Atoh1-GFP reporter. The format is cell-based. Conditions: 10 doses 50 μM to 200 nM, 72 hours treatment, DMSO control = 1, more than 5 considered significant, read-out: fold difference (maximum fold difference of GFP average intensity in cell nuclei over the DMSO control). As for the experimental part: Compounds of the present disclosure were assessed for their ability to increase the Atoh1 expression in mouse cerebellar neural precursor cells. The ability of compounds of the present disclosure to induce new hair cell formation was assessed in ex vivo hair cell induction assay using 6-day-postnatal mouse cochlea explants with hair cell damage.
Atoh1 Induction Assay in Mouse Cerebellar Neural Precursor Cells (NPCs)
Atoh1 induction assay was conducted with in vitro cultured cerebellar neural precursor cells isolated from neonatal transgenic Atoh1-GFP mice. Atoh1 expression is mainly regulated by the enhancer, and the nuclear GFP was driven by the cloned enhancer sequence at 3′ of Atoh1 which had high conservation among mammalians. So Atoh1 induction could be reflected by GFP activation in cerebellar neural precursor cells (Helms et al., Development 2000; 127: 1185-1196; Lumpkin et al., Gene Expression Patterns 2003; 3: 389-395). Postnatal 3 days pups were dissected for cerebellum tissue isolation. The cerebellum tissue was cut into small pieces, and dissociated with 0.05% Trypsin for about 10 minutes at 37° C., and then filtered with a 70 uM cell strainer. The cells were cultured as neuropsheres for the first 2 days in ultra-low attachment dish/well-plate with DMEM/F12+1% N2 &2% B27 with 1% P/S, 20 ng/ml rhFGF2 and 20 ng/ml rhEGF (R&D Systems). Then the spheres were plated to the matrigel (1:30 diluted in DMEM/F12)-coated tissue culture dish for monolayer culture. After 4.5-5.5 days culture in vitro (DIV), cells were dissociated with 0.05% trypsin into single cells, and frozen after cell number calculation.
The cerebellar neural precursor cells (NPCs) were re-thawed from stock and cultured for another 2 days before used for Atoh1 induction assay. On the first day of assay, NPCs were seeded into matrigel-coated 384 well plates (Black view-plate, PE) at 2500 cells/well. After over-night culture, the NPCs were treated with representative compounds of the present disclosure with 1:2 serial dilutions for 10 doses, from 50 μM to 200 nM, with DMSO as negative control. After 72 hours treatment without medium change, the cells were fixed with 4% formalin for staining. Assay plates were stained with GFP antibody (Abcam, #13970, 1:1000) to amplify endogenous GFP signal and then read by Cellomics.

As for `NC(=O)C1CN(CCC(F)(F)CCNC(=O)c2cc(-c3cccs3)on2)C1` [Example 75, N-(5-(3-Carbamoylazetidin-1-yl)-3,3-difluoropentyl)-5-(thiophen-2-yl)isoxazole-3-carboxamide], the maximal fold induction was found to be 20.6.

Consider `O=C(NCCCCCN1CCCC(O)C1)c1cc(-c2cccs2)on1` (stereo not drawn) [Example 57], for which the maximal fold induction came to 15.4.

Take `O=C(NCCCCCN1CCNCC1)c1cc(-c2cccs2)on1` [Example 3, N-(5-(Piperazin-1-yl)pentyl)-5-(thiophen-2-yl)isoxazole-3-carboxamide]: the maximal fold induction was found to be 21.

Take `O=C(NCCCCCN1CC(C(=O)N[C@H]2C[C@H](O)C2)C1)c1cc(-c2ccc(F)cc2)on1` [Example 89, 5-(4-Fluorophenyl)-N-(5-(3-(((1,3-trans)-3-hydroxycyclobutyl)carbamoyl)azetidin-1-yl)pentyl)isoxazole-3-carboxamide]: the maximal fold induction stood at 11.

`C[C@@H]1CNCCN1CCCCCNC(=O)c1cc(-c2cccs2)on1` [Example 5, (R)—N-(5-(2-Methylpiperazin-1-yl)pentyl)-5-(thiophen-2-yl)isoxazole-3-carboxamide]: the maximal fold induction came to 32.5.

Consider `O=C(NCCCCCN1CC(C(=O)NC2CC2)C1)c1cc(-c2cccs2)on1` [Example 62], for which the maximal fold induction was determined as 26.6.

For `O=C(NCCCCCN1CCCC1)c1cc(-c2cccs2)on1` [Example 7, N-(5-(Pyrrolidin-1-yl)pentyl)-5-(thiophen-2-yl)isoxazole-3-carboxamide], the maximal fold induction turned out to be 31.

With `CNC(=O)N1CCN(CCCCCNC(=O)c2cc(-c3cccs3)on2)CC1` [Example 25, N-(5-(4-(Methylcarbamoyl)piperazin-1-yl)pentyl)-5-(thiophen-2-yl)isoxazole-3-carboxamide], the maximal fold induction came out at 10.1.

As to `C[C@H]1CN(CCCCCNC(=O)c2cc(-c3cccs3)on2)C[C@H](C)O1` [Example 43], the maximal fold induction is 21.5.

On to `COC(=O)N1CCN(CCCCCNC(=O)c2cc(-c3cccs3)on2)CC1` [Example 24, Methyl 4-(5-(5-(thiophen-2-yl)isoxazole-3-carboxamido)pentyl)piperazine-1-carboxylate], for which the maximal fold induction came out at 24.

For the compound `O=C(NCCCCCN1CCCC(F)C1)c1cc(-c2cccs2)on1` (stereo not drawn) [Example 50], the maximal fold induction stood at 23.4.

`CS(=O)(=O)C1CN(CCCCCNC(=O)c2cc(-c3cccs3)on2)C1` [Example 63]: the maximal fold induction came out at 19.8.

In the case of `N#CCCOC(=O)NC1CN(CCCCCNC(=O)c2cc(-c3cccs3)on2)C1` [Example 21, 2-Cyanoethyl (1-(5-(5-(thiophen-2-yl)isoxazole-3-carboxamido)pentyl)azetidin-3-yl)carbamate], the maximal fold induction was found to be 13.

With `O=C(NCCCCCN1CC(C(=O)NC2CCC(O)C2)C1)c1cc(-c2cccs2)on1` (stereo not drawn) [Example 82, N-(5-(3-((3-Hydroxycyclopentyl)carbamoyl)azetidin-1-yl)pentyl)-5-(thiophen-2-yl)isoxazole-3-carboxamide], the maximal fold induction is 31.9.

As to `N#CC1CN(CCCCCNC(=O)c2cc(-c3ccc(F)cc3)on2)C1` [Example 64], the maximal fold induction was 36.2.

`NS(=O)(=O)C1CN(CCCCCNC(=O)c2cc(-c3cccs3)on2)C1` [Example 72, N-(5-(3-sulfamoylazetidin-1-yl)pentyl)-5-(thiophen-2-yl)isoxazole-3-carboxamide]: the maximal fold induction came out at 15.5.

With `CN1CCN(CCC(F)(F)CCNC(=O)c2cc(-c3cccs3)on2)CC1` [Example 74, N-(3,3-Difluoro-5-(4-methylpiperazin-1-yl)pentyl)-5-(thiophen-2-yl)isoxazole-3-carboxamide], the maximal fold induction is 19.4.

On to `CNC(=O)C1CN(CCCCCNC(=O)c2cc(-c3ccc(F)cc3)on2)C1` [Example 85, 5-(4-Fluorophenyl)-N-(5-(3-(methylcarbamoyl)azetidin-1-yl)pentyl)isoxazole-3-carboxamide], for which the maximal fold induction turned out to be 20.7.

As for `CN1CCN(CCCCCNC(=O)c2cc(-c3ccc(F)s3)on2)CC1` [Example 73, 5-(5-Fluorothiophen-2-yl)-N-(5-(4-methylpiperazin-1-yl)pentyl)isoxazole-3-carboxamide], the maximal fold induction came out at 19.1.

For `CCNC(=O)C1CN(CCCCCNC(=O)c2cc(-c3ccc(F)cc3)on2)C1` [Example 86, N-(5-(3-(Ethylcarbamoyl)azetidin-1-yl)pentyl)-5-(4-fluorophenyl)isoxazole-3-carboxamide], the maximal fold induction was 36.7.

For the compound `CC(C)C[C@H]1CN(CCCCCNC(=O)c2cc(-c3cccs3)on2)CCN1` [Example 6, (S)—N-(5-(3-isobutylpiperazin-1-yl)pentyl)-5-(thiophen-2-yl)isoxazole-3-carboxamide], the maximal fold induction worked out at 9.

On to `O=C(NCCCCCN1CC(C(=O)N[C@H]2C[C@H](O)C2)C1)c1cc(-c2cccs2)on1` [Example 80, N-(5-(3-(((1,3-trans)-3-Hydroxycyclobutyl)carbamoyl)azetidin-1-yl)pentyl)-5-(thiophen-2-yl)isoxazole-3-carboxamide], for which the maximal fold induction was 47.2.

Turning to `CN(C)C(=O)C1CN(CCCCCNC(=O)c2cc(-c3ccc(F)cc3)on2)C1` [Example 28], the maximal fold induction was 28.6.

`NS(=O)(=O)C1CN(CCCCCNC(=O)c2cc(-c3ccc(F)cc3)on2)C1` [Example 70]: the maximal fold induction stood at 14.

As to `O=C(NCCCCCN1CC(C(=O)N[C@H]2CCC[C@@H]2O)C1)c1cc(-c2ccc(F)cc2)on1` [Example 91, 5-(4-Fluorophenyl)-N-(5-(3-(((1S,2S)-2-hydroxycyclopentyl)carbamoyl)azetidin-1-yl)pentyl)isoxazole-3-carboxamide], the maximal fold induction came to 34.5.

As to `N#CC1CCN(CCCCCNC(=O)c2cc(-c3cccs3)on2)C1` (stereo not drawn) [Example 29], the maximal fold induction stood at 20.1.

With `O=C1CCN(CCCCCNC(=O)c2cc(-c3cccs3)on2)C1` [Example 26, N-(5-(3-Oxopyrrolidin-1-yl)pentyl)-5-(thiophen-2-yl)isoxazole-3-carboxamide], the maximal fold induction was determined as 7.1.

On to `N#CCNC(=O)C1CN(CCCCCNC(=O)c2cc(-c3cccs3)on2)C1` [Example 77, N-(5-(3-((Cyanomethyl)carbamoyl)azetidin-1-yl)pentyl)-5-(thiophen-2-yl)isoxazole-3-carboxamide], for which the maximal fold induction was 24.1.

As to `O=C(NCCCCCN1CC(CO)C1)c1cc(-c2ccc(F)cc2)on1` [Example 33], the maximal fold induction was determined as 26.1.

On to `O=C(NCCCCCN1CCNC(c2ccccc2)C1)c1cc(-c2cccs2)on1` (stereo not drawn) [Example 1, N-(5-(3-Phenylpiperazin-1-yl)pentyl)-5-(thiophen-2-yl)isoxazole-3-carboxamide], for which the maximal fold induction was determined as 22.4.

For the compound `O=C(NC1CN(CCCCCNC(=O)c2cc(-c3cccs3)on2)C1)OCCO` [Example 20, 2-Hydroxyethyl (1-(5-(5-(thiophen-2-yl)isoxazole-3-carboxamido)pentyl)azetidin-3-yl)carbamate], the maximal fold induction is 29.4.

With `CN1CCN(CCCCCNC(=O)c2cc(-c3cccs3)on2)CC1=O` [Example 38], the maximal fold induction came out at 34.3.

In the case of `O=C(NCCCCCN1CCn2cncc2C1)c1cc(-c2cccs2)on1` [Example 94, N-(5-(5,6-dihydroimidazo[1,5-a]pyrazin-7(8H)-yl)pentyl)-5-(thiophen-2-yl)isoxazole-3-carboxamide], the maximal fold induction is 20.6.

Turning to `CN1C[C@H]2C[C@@H]1CN2CCCCCNC(=O)c1cc(-c2cccs2)on1` [Example 60], the maximal fold induction is 18.7.

On to `O=C(NCCCCCN1CC(C(=O)N[C@H]2C[C@@H](O)C2)C1)c1cc(-c2ccc(F)cc2)on1` [Example 92, 5-(4-Fluorophenyl)-N-(5-(3-(((1,3-cis)-3-hydroxycyclobutyl)carbamoyl)azetidin-1-yl)pentyl)isoxazole-3-carboxamide], for which the maximal fold induction was determined as 13.

Take `CS(=O)(=O)NC1CN(CCCCCNC(=O)c2cc(-c3ccc(F)cc3)on2)C1` [Example 22, 5-(4-Fluorophenyl)-N-(5-(3-(methylsulfonamido)azetidin-1-yl)pentyl)isoxazole-3-carboxamide]: the maximal fold induction turned out to be 25.5.

On to `CN1CC2CCC(C1)N2CCCCCNC(=O)c1cc(-c2cccs2)on1` [Example 13, N-(5-(3-Methyl-3,8-diazabicyclo[3.2.1]octan-8-yl)pentyl)-5-(thiophen-2-yl)isoxazole-3-carboxamide], for which the maximal fold induction amounted to 23.

For `O=C(NCCCCCN1CC(F)(F)C1)c1cc(-c2cccs2)on1` [Example 58], the maximal fold induction came to 10.

Consider `O=C(NCCCCCN1CCN2CCCC2C1)c1cc(-c2cccs2)on1` (stereo not drawn) [Example 41], for which the maximal fold induction is 21.9.
